Data set [1] is described as follows: Fluorescence quantum yield. It counts as physicochemical. The note with it: 10 μM, 1% ethanol in water, excitation 290 nm, standard 3-aminopyridine; SD under ±5%. As to the method: Quantum yield. The fluorescence quantum yield, φf, was calculated according to the following equation:
ØF=Østd*(I/Istd)*(ODstd/OD)*(n/nstd)^2,
wherein ØF is the quantum yield of the tested fluorescent reporter; Østd is the fluorescence quantum yield of the standard; I and Istd are the integrated emission intensities of the sample and the standard, respectively; OD and ODstd are the absorbance of the sample and standard, respectively, at the desired wavelength λex; and n and nstd are the indexes of refraction of the sample and standard solutions, respectively (Horspool and Song (Eds.), CRC Handbook of Organic Photochemistry I, pp 234-235, CRC Press, Boca Raton, Fla., 1995).
In this example, 3-aminopyridine in water at the maximal excitation wavelength of 290 nm was used as a standard (Østd=0.32, εmax=2800 M^−1 cm^−1) (see, e.g., Weisstuch et al., J. Phys. Chem., 72:1982-1987 (1968)). In order to minimize inner filter effects, the optical densities of samples at the excitation wavelength (λ=290 nm) were kept in the range of 0.095-0.13 (less than 0.150-0.165). The final concentration of each tested sample in a quartz cuvette was 10 μM with 1% ethanol in water, same as that for the standard. The integrated area of fluorescent intensity for the standard or the samples was based on the area between 360 and 500 nm. The difference of the index of refraction between the standard and the sample was neglected because (1) all measurements were performed in the same quartz cuvette and spectrofluorimeter; (2) the final concentrations of the sample and the standard were the same; and (3) the structures of the sample and standard were very similar, i.e., only one pyridine ring. The quantum yields presented in Table 1 were based on calculation of the average of OD and integrated fluorescent intensities of triplicates. The standard deviation for each quantum yield was less than ±5%.

Data set [2] in a line: Molar extinction coefficient of fluorescent reporters. The data set is classed as physicochemical. Particulars: H2O containing 1% ethanol, 290 nm, 30° C., 10-50 μM. As to the method: Molar extinction coefficient. According to Beer's law, Aλ=ε*C*L, where Aλ is the absorbance at wavelength (λ nm); ε is called the molar extinction coefficient; L is the width of the sample cuvette; and C is the concentration of the solute. In this example, a series of concentrations falling between 10 and 50 μM (final concentration) for each fluorescent reporter was used for determination of the molar extinction coefficient. Assays were performed in a quartz cuvette (1 cm optical passage). 10 μl of a stock solution of a reporter in ethanol (1, 2, 3, 4, or 5 mM) was added to 990 μl H2O. The resulting mixture was degassed by sonication with ultrasonic cleaner Model 750 (VWR International; Wester, Pa.) for 10 seconds at a power level of 9. Measurements were performed with a Spectra Max M2 spectrophotometer (Molecular Devices; Sunnyvale, Calif.) at a wavelength of 290 nm. A slope (or extinction coefficient) was obtained by using an average absorbance of triplicate samples.

A short description of data set [3]: Maximal excitation and emission wavelengths. The data set is classed as physicochemical. The note with it: 50 μM in 0.1 M phosphate buffer, 30° C.; SD ±2 nm. As to the method: Maximal excitation and emission wavelengths. A stock solution in ethanol of each compound (10 μl, 5 mM) was added to 990 μl of sodium phosphate buffer (0.1 M, pH 8.0, final substrate concentration 50 μM) in a 1-cm quartz cuvette. The quartz cuvette was scanned from 200 to 500 nm for absorption spectra with a Spectra Max M2 spectrophotometer. Maximal excitation and emission wavelengths were obtained from scanning from 250 to 600 nm and 360 to 600 nm by a 2 nm interval at 30° C., respectively.

The target of data set [4] is T1, L-Leucine aminopeptidase from porcine kidney microsomes (Sus scrofa, UniProt P15145).
T1 construct: purchased Sigma-Aldrich L5006; host or cells: porcine kidney microsomes
T1 sequence (P15145 1-963): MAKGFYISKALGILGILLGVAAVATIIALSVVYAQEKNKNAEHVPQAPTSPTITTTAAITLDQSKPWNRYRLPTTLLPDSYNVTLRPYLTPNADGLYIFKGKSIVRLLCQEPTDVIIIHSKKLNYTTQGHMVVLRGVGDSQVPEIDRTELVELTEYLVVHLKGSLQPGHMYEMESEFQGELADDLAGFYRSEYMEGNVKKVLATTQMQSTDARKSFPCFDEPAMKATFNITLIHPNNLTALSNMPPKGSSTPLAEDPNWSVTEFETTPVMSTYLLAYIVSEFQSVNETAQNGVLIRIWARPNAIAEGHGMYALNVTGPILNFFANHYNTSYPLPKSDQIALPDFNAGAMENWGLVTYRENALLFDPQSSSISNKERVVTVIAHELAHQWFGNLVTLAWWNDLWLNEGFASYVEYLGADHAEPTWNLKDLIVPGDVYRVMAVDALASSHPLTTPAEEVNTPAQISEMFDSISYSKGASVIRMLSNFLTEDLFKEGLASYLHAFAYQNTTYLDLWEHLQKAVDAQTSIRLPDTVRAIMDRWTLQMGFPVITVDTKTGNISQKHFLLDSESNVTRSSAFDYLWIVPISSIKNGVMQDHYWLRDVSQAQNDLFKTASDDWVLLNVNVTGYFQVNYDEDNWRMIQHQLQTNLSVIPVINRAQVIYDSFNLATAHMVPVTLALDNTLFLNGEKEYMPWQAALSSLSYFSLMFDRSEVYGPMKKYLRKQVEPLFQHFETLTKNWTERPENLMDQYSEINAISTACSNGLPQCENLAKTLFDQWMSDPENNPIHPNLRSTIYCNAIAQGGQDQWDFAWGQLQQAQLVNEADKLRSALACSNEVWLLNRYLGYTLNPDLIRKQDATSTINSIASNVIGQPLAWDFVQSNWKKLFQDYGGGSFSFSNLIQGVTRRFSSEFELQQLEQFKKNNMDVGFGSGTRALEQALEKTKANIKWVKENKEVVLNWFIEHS
The data set can be described thus: Sensitivity of L-Leucine aminopeptidase toward colorimetric and fluorescent substrates. It counts as biochemical. The note with it: for base line, Average: 0 min; for base line, Average / signal, Average: 25 μM; for signal, Average: 10 min; for Protein, lowest detection limit of L-Leucine aminopeptidase (signal at 10 min ≥ 3 times base line): substrate 25 μM. The procedure:
Comparison of the sensitivities of L-Leucine aminopeptidase toward colorimetric and fluorescent substrates. In general, all assays were performed in 96-well styrene flat-bottom microtiter plates using a Spectra Max M2 spectrophotometer at 37° C. for 10 min. The total volume of each well was 201 μl containing 0.1 M sodium phosphate buffer (190 μl, pH 7.2), stock or diluted protein solution (10 μl), and 5 mM of the substrate solution (1 μl) in either ethanol for substrates (18) and (19). The lowest detection limit of microsomal L-Leucine aminopeptidase by substrates was determined by the fact that the signal at 10 min was equal to or over 3 times the basal line at 0 min. Colorimetric substrates assays (e.g., (20)) were performed in clear 96-well microtititer plates using an absorbance wavelength of 382 nm. The fluorescent substrates containing 5-amino-2-methoxypyridine (e.g., (19)) were measured at an excitation wavelength (302 nm), emission wavelength (396 nm), and auto cutoff wavelength (325 nm). Similarly, the fluorescent substrates containing 5-amino-2-methoxy-6-methylpyridine (e.g., (18)) were measured at an excitation wavelength (304 nm), emission wavelength (392 nm), and auto cutoff wavelength (325 nm).

Setting [5] is: pH 7.2, 37° C., protein 1.97 (18), 0.018 (19) μg/well.
Where [6] appears, read: absorbance 382 nm, protein 1.97 μg/well.

Marks after values point to notes of the source that are not given here.

From patent US20100160391A1, “Substituted Aminopyridines as Fluorescent Reporters for Amide Hydrolases” (priority 2006, published 2010) come the findings set out here.

For `Nc1cccnc1F` [Compound 4, 3-amino-2-fluoropyridine], the “ØF, fluorescence quantum yield” value in data set [1] came to 0.04. Further, in data set [2], the “εmax, molar extinction coefficient” value amounted to 3670 M⁻¹ cm⁻¹. In data set [3], the “Em, maximal emission wavelength” value turned out to be 374 nm and the “Ex, maximal excitation wavelength” value is reported as 282 nm.

Turning to `COc1ncccc1N` [Compound 7, 3-amino-2-methoxypyridine], the “ØF, fluorescence quantum yield” value in data set [1] worked out at 0.27. Moreover, the “εmax, molar extinction coefficient” value in data set [2] stood at 4670 M⁻¹ cm⁻¹. Also, in data set [3], the “Em, maximal emission wavelength” value amounted to 378 nm and the “Ex, maximal excitation wavelength” value was 284 nm.

As for `Cc1ccc(N)cn1` [Compound 3, 3-amino-6-methylpyridine], in data set [1], the “ØF, fluorescence quantum yield” value amounted to 0.62. In data set [2], the “εmax, molar extinction coefficient” value is 2700 M⁻¹ cm⁻¹. In data set [3], the “Em, maximal emission wavelength” value is 384 nm and the “Ex, maximal excitation wavelength” value came to 290 nm.

Broadly, the melting point is the temperature of the solid-liquid transition. `COc1ccc(NC(C)=O)c(C)n1` [Compound 11, N-(6-methoxy-2-methylpyridin-3-yl) acetamide]: the melting point lay in the range of 130.1 to 130.4 °C.

For `Nc1ccc(F)nc1` [Compound 5, 5-amino-2-fluoropyridine], the “ØF, fluorescence quantum yield” value in data set [1] came to 0.72. The “εmax, molar extinction coefficient” value in data set [2] was 2360 M⁻¹ cm⁻¹. In data set [3], the “Em, maximal emission wavelength” value amounted to 384 nm and the “Ex, maximal excitation wavelength” value came to 292 nm.

With `Cc1ccncc1N` [Compound 2, 3-amino-4-methylpyridine], in data set [1], the “ØF, fluorescence quantum yield” value was 0.53. Also, in data set [2], the “εmax, molar extinction coefficient” value is 2580 M⁻¹ cm⁻¹. Further, in data set [3], the “Em, maximal emission wavelength” value is listed as 376 nm and the “Ex, maximal excitation wavelength” value is recorded as 280 nm.

Consider `COc1ccc(N)c(C)n1` [Compound 8, 3-amino-6-methoxy-2-picoline], for which, in data set [1], the “ØF, fluorescence quantum yield” value turned out to be 0.97. The “εmax, molar extinction coefficient” value in data set [2] was 4130 M⁻¹ cm⁻¹. Moreover, in data set [3], the “Em, maximal emission wavelength” value was 392 nm and the “Ex, maximal excitation wavelength” value amounted to 304 nm.

For the molecule `COc1ccc(NC(=O)[C@@H](N)CC(C)C)cn1` [Compound 19, N-(6-methoxypyridin-3-yl), (S)-2-amino-4-methylpentanamide], in data set [4] (setting [5]), the base line, Average turned out to be 67 RFU/sec and the “signal, Average” value is recorded as 228* RFU/sec. Also, in data set [4] (Table 5), the “times more sensitive than substrate (20)” value is recorded as “at least 100 times”. Further, the “Protein, lowest detection limit of L-Leucine aminopeptidase (signal at 10 min ≥ 3 times base line)” value (from here on “Protein, lowest detection limit”) in data set [4] (pH 7.2, 37° C.) stood at 0.018 μg/200 μL.

With `COc1ccc(NC(=O)[C@@H](N)CC(C)C)c(C)n1` [Compound 18, N-(6-methoxy-2-methylpyridin-3-yl), (S)-2-amino-4-methylpentanamide], in data set [4] (setting [5]), the “base line, Average” value is 164 RFU/sec and the “signal, Average” value was 494* RFU/sec. Moreover, the “Protein, lowest detection limit” value in data set [4] (pH 7.2, 37° C.) is 1.97 μg/200 μL.

In the case of `CC(C)C[C@H](N)C(=O)Nc1ccc([N+](=O)[O-])cc1` [Compound 20, L-Leucine-p-nitroanilide], in data set [4] (setting [6]), the “base line, Average” value is 0.08 OD and the “signal, Average” value is 0.24* OD. In addition, the “Protein, lowest detection limit” value in data set [4] (pH 7.2, 37° C.) is reported as 1.97 μg/200 μL.
